Measured values from patent US6200962A, “Thionophosphate derivatives, process for their preparation and pharmaceutical compositions containing them” (priority 1994, dated 2001).

Experiments:
[1] = oil(mineral)/water and octanol/water partitioning; type: physicochemical
Excerpt: The basic chemical structure of the compounds of the invention includes the group --P--N=S, which resembles the thiourea --N--C=S core, in which the central carbon atom has been replaced by a phosphorus atom, to give --N--P=S, which is the characteristic functional group the novel compounds of the invention. This functional group is based on a primary amido thionophosphate (AMTP) chemical bond. The specific compounds shown in FIG. 1, which are only representative of the numerous possible compounds, differ in their oil(mineral) /water and octanol/water partitioning: […]

[2] = Hydroxyl radical chemiluminescence method (H2O2, NTA-Fe2+, HRP); conditions: increasing concentrations
Protocol: Chemiluminescence (CL) was measured in mixtures of H2 O2, NTA-Fe^2+ and HRP (Horseradish peroxidase) systems in a LUMAC/3M BIOCONTER M2010 connected to a linear recorder as described [Ginsburg, I. et al. (1993) Inflammation 17:227-243]. The scavenging of hydroxyl radicals was done by various concentrations of AMTP (compound C dissolved in reaction buffer).
where A is the absorbance in the presence of a scavenger S (AMTPs) at a concentration [S] and A0 is the absorbance in the absence of a scavenger KDR =3.1*10^9 (reaction constant between deoxyribose and OH. radical) [Ebert, M., et al. (1965) Pulse Radiolysis, Academic Press, London] and [DR]=18 mM. […] Considering the fast reaction between H2 O2 and Fe^2+ --NTA and the slow reaction rate between AMTP and hydrogen peroxide as monitored in the ^31 P experiments (FIG. 5), the light decay may be exclusively attributed to hydroxyl radical scavenging.

Sabra mice = test: Toxicity study, i.p. injection; type: in vivo
Protocol: The toxicity of compound B was tested by injecting 75 mg/kg, 150 mg/kg, 300 mg/kg, 500 mg/kg, 700 mg/kg and 1000 mg/kg i.p. to groups of eight Sabra mice. In addition, a repetitive i.p. injection of 75 mg/kg/day over a period of two weeks was conducted on eight mice. The mice were monitored for mortality and for chances in their weight compared to a saline injected control group.
The toxicity of compound B was tested by injecting 75 mg/kg, 150 mg/kg, 300 mg/kg, 500 mg/kg, 700 mg/kg and 1000 mg/kg i.p. to groups of eight Sabra mice.

BSA = test: BSA's cystine oxidation by NaOCl (DTNB); conditions: NaOCl 1 mM
Protocol: BSA (0.5 mg/ml) in Imi HEPES buffer pH=7.2(50 mM) was incubated with sodium hypochlorite (1 mM) for 15 min. The protein was dialyzed for 2 h against 2×500 vol of HEPES buffer to remove free sodium hypochlorite. 301 DTNB 0.015 M in water was then added to the protein solution and color was measured at 420 nm. AMTPs were added to the protein sample to protect it against sodium hypochlorite [Hazell and Stocker, ibid.].
BSA's tryptophan oxidation and BSA's cystine oxidation were the models for protein damage by NaOCl (FIG. 11 and FIG. 12 respectively). BSA fluorescence intensity decreased following oxidative stress of NaOCI (1 mM). […] Out of the three AMTP compounds the most lipophilic (A) was best in preventing the damage and provided 94% protection on the protein.

CCOP(=S)(NCCO)OCC [Compound B, 2-hydroxyamido diethyithionophosphate]
logP ([1]; octanol/water, read-out: P (octanol/water) (converted)): 0.508
P (oil/water) ([1]; oil(mineral)/water): 0.25
decay of light (hydroxyl radical scavenging) [2]: Dose dependent decay of light
mortality (Sabra mice; i.p., doses up to 500 mg/kg): No mortality was observed
changes in average weight (Sabra mice; i.p., up to 500 mg/kg, monitoring of 30 days, vs saline control): nor were there any significant changes
mortality or weight differentiation (Sabra mice; repetitive i.p. 75 mg/kg/day, two weeks): did not lead to any mortality or weight differentiation
protection of BSA's cystines (BSA): strong protection
